Measurements: patent US6201129A, “Tricyclic derivatives and their use as anti-cancer agents” (Univ. College Cardiff Consultants, priority 1997, dated 2001)

System: HT1080scc2 (clone of human fibrosarcoma cell-line HT1080)
Assay: Cell proliferation/cytotoxicity assay, methylene blue biomass staining
Assay type: cell-based
Settings: HT-1080, HT1080scc2 cells, 1×10^3 cells per well, compound added day 1, further 4 days at 37° C., methylene blue staining read at 620 nm
Protocol: Compounds of the general formula (I) have been tested against two specially developed cell lines which are clones of the human fibrosarcoma cell-line HT1080. One clone HT1080scc2, retains the transformed phenotype of the parental line, whilst the other, HT10801c, is a morphologically flat, non-tumourigenic, revertant.
Assays for cell proliferation/cytotoxity were carried out in tissue culture grade 96 well microtitre plates (Costar). Cells in log growth were added to the plates at a concentration of 1×10^3 cells per well on day 0 and serially diluted compounds were then added on day 1. Plates were then incubated at 37° C. in 5% CO2 in air for a further 4 days.
For quantitation of cell growth, the methylene blue biomass staining method was used, the test being read on a Multiscan plate reader at wavelength of 620 nm. The morphology of the cells was checked microscopically under phase-contrast immediately before the fixation and staining with methylene blue, and by ordinary light microscopy thereafter. IC50 values for active compounds were obtained using the computer programme, GS1 and dose-response slopes were also plotted.

CCOC(=O)c1[nH]c2cc3c(C(=O)OCC)c(C)[nH]c3c(C)c2c1C [Example 1, Diethyl 1,5-dihydro-3,4,6-trimethylpyrrolo[2,3-f]indole-2,7-dicarboxylate]
IC50: 100 µM

CCOC(=O)c1[nH]c2cc3[nH]c(C)cc3c(C)c2c1C [Example 2, Ethyl 1,7-dihydro-3,4,6-trimethylpyrrolo[3,2-f]indole-2-carboxylate]
IC50: 3 µM
